Results reported in US6864261B2, “Therapeutic agents useful for treating pain” (Euro-Celtique S.A., priority 2002, dated 2005).

Biological target: T1, mGluR5 (Rattus norvegicus, UniProt P31424)
T1 construct: The procedure allows the expression of the mGluR5 receptor by astrocytes; endogenous in cells; host or cells: secondary astrocyte cultures from cortices of Sprague-Dawley E18 embryos, cultured with EGF
Assay: Inhibition of glutamate induced calcium mobilization in astrocytes expressing mGluR5 (Fluo-4, Fluorometric Imaging Plate reader)
Assay type: cell-based
Conditions: final glutamate 10 mM (FIG. 1 legend: 10 μM), mean of 3 experiments
Procedure: Cell cultures: Primary glial cultures were prepared from cortices of Sprague-Dawley 18 days old embryos. The cortices were dissected and then dissociated by trituration. The resulting cell homogenate was plated onto poly-D-lysine precoated T175 flasks (BIOCOAT, commercially available from Becton Dickinson and Company Inc. of Franklin Lakes, N.J.) in Dulbecco's Modified Eagle's Medium (“DMEM,” pH 7.4), buffered with 25 mM HEPES, and supplemented with 15% fetal calf serum (“FCS,” commercially available from Hyclone Laboratories Inc. of Omaha, Nebr.), and incubated at 37° C. and 5% CO2. After 24 hours, FCS supplementation was reduced to 10%. […]
Assay Protocol: After 3-5 days incubation with EGF, the astrocytes were washed with 127 mM NaCl, 5 mM KCl, 2 mM MgCl2, […] NaH2PO4, 2 mM CaCl2, 5 mM NaHCO3, 8 mM HEPES, 10 mM Glucose at pH 7.4 (“Assay Buffer”) and loaded with the dye Fluo-4 (commercially available from Molecular Probes Inc. of Eugene, Oreg.) using 0.1 mL of Assay Buffer containing Fluo-4 ([…]). […] The plates containing the astrocytes were then transferred to a Fluorometric Imaging Plate reader (commercially available from Molecular Devices Corporation of Sunnyvale, Calif.) for the assessment of calcium mobilization flux in the presence of glutamate and in the presence or absence of antagonist. […] In each experiment each data point was determined two times.

T1 sequence (P31424 21-1203): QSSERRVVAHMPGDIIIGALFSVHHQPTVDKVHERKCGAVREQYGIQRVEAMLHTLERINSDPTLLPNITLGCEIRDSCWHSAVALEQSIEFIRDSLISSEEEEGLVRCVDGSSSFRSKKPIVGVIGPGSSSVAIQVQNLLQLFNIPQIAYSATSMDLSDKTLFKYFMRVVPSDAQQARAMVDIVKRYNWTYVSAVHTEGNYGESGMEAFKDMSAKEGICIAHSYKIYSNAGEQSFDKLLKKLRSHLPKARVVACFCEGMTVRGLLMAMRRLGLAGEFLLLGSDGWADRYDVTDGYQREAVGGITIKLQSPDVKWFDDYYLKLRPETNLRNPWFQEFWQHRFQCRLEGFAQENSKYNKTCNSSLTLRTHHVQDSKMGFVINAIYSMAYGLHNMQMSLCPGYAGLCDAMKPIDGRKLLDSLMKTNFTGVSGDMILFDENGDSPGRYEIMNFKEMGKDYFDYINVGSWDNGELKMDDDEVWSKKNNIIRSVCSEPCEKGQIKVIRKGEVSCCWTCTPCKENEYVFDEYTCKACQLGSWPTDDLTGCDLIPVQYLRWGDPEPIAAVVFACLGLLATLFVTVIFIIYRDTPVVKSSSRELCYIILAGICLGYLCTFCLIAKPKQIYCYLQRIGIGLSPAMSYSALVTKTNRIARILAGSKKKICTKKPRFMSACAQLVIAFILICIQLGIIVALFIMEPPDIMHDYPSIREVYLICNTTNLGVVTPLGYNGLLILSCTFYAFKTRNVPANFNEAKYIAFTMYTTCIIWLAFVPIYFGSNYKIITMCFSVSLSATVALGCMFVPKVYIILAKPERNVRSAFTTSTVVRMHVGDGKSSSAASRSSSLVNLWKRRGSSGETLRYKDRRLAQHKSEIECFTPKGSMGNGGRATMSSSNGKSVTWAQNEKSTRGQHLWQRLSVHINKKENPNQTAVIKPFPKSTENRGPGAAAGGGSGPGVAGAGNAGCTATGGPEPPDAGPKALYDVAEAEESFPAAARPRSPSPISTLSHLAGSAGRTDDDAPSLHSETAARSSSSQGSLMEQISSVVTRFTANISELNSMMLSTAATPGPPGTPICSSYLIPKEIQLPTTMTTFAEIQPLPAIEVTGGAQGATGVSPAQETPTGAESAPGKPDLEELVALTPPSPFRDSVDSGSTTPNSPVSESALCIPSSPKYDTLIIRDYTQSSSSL

Work on `O=C(C#Cc1ccccc1)N1CCN(c2ncccc2[N+](=O)[O-])CC1` [Compound AA] yielded an IC50 of 8.9 ± 4.8 nM.
